# Source: US12679843B2, “Pyrrolopyrimidine amines as complement inhibitors” (BioCryst Pharmaceuticals, Inc., priority 2020, dated 2026)
# Target: Factor D (Homo sapiens, UniProt P00746)
# Assay: Factor D esterolytic assay (Z-Lys-SBzl thioester substrate, DTNB, 405 nm)
# Format: biochemical
# Conditions: substrate Z-Lys-SBzl 1.29 mM, 100 mM HEPES, 500 mM NaCl, pH 7.5, 10% DMSO, tested a minimum of three times
# Protocol: The IC50 value of a compound (i.e., the concentration of the compound that inhibits 50% of the enzymatic activity) was calculated according to the procedure reported in U.S. Pat. No. 6,653,340 B1, e.g., column 74 (incorporated by reference).
# Specifically, the compounds were dissolved in a stock solution of DMSO at 10.0 or 100 mM. A portion of this stock solution was added to assay buffer in a final volume of 50 μL. Controls included buffer alone and enzyme solutions to which DMSO was added. Substrate was added to the reaction wells immediately or after incubation at room temperature. The reaction rates were measured spectrophotometrically by the generation of product at 405 nm for 600 sec. Background absorbance at 690 nm was measured and subtracted from the absorbance at 405 nm for each well.
# The reaction rate for enzyme alone was compared to the rate of enzyme in the presence of inhibitor and the percent inhibition was calculated as shown below: Percent Inhibition=[Rate without inhibitor−Rate with inhibitor)/(Rate without inhibitor)]−100 Factor D Esterolytic Assay:
# An established esterolytic assay for the measurement of Factor D activity and inhibition of Factor D activity was used (Kam, C. M.; McRae, B. J.; Harper, J. W.; Niemann, M. A.; Volanakis, J. E.; Powers, J. C. Human complement proteins D. C2, and B Active site mapping with peptide thioester substrates. J Biol. Chem. 1987, 262, 3444-3451). For this assay Z-Lys-SBzl, 1.29 mM (Kim, S.; Narayana, S. V. L; Volanakis, J. E. Mutational analysis of the substrate binding site of human complement Factor D. Biochemistry, 1994, 33, 14393-14399) was used as the substrate for Factor D ([…]). Hydrolysis of this compound by Factor D liberated a free sulfhydryl group which is then reacted with 5,5′-dithiobis(2-nitrobenzoic acid) producing an intense yellow color (Habeeb, A. F. S. A. Reaction of protein sulfhydryl groups with Ellman's Reagent. Methods in Enzymol. 1976, 25, 457-464). The assays were performed in 96 well microtiter plates and rates of hydrolysis were monitored at 405 nm on a Biotek Synergy H1 plate reader. Hydrolysis rates were reported as change in mOD/min. The assay was conducted in 100 mM HEPES, 500 mM NaCl, pH 7.5 containing 10% DMSO in a final volume of 50 μL per well.
# An IC50, a compound concentration which inhibits 50% of the enzymatic activity, was calculated. Compounds in the examples were tested a minimum of three times.
# Chain of Factor D (P00746 26-253): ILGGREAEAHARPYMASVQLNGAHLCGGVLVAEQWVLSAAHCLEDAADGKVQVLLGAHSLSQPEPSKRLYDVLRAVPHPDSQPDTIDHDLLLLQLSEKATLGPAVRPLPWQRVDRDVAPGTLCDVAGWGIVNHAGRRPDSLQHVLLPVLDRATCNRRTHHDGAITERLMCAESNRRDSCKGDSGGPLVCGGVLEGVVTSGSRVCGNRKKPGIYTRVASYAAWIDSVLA
row,Compound,IC50
1,"COC(=O)c1ccc2c3c(N)ncnc3n(CC(=O)N3[C@@H]4C[C@@H]4C[C@H]3C(=O)Nc3cccc(Br)n3)c2c1 [Compound 41f, methyl 4-amino-9-(2-((1R,3S,5R)-3-((6-bromopyridin-2-yl)carbamoyl)-2-azabicyclo[3.1.0]hexan-2-yl)-2-oxoethyl)-9H-pyrimido[4,5-b]indole-7-carboxylate]",< 100 nM
2,"COC(=O)c1ccc2c3c(N)ncnc3n(CC(=O)N3[C@H](C(=O)Nc4cccc(Br)n4)C[C@@]4(C)C[C@@H]34)c2c1 [Compound 42a, methyl 4-amino-9-(2-((1R,3S,5R)-3-((6-bromopyridin-2-yl)carbamoyl)-5-methyl-2-azabicyclo[3.1.0]hexan-2-yl)-2-oxoethyl)-9H-pyrimido[4,5-b]indole-7-carboxylate]",< 100 nM
3,"Nc1ncnc2c1c1ccc(C(=O)O)cc1n2CC(=O)N1[C@@H]2C[C@@H]2C[C@H]1C(=O)Nc1cccc(Br)n1 [Compound 43a, 4-amino-9-(2-((1R,3S,5R)-3-((6-bromopyridin-2-yl)carbamoyl)-2-azabicyclo[3.1.0]hexan-2-yl)-2-oxoethyl)-9H-pyrimido[4,5-b]indole-7-carboxylic acid]",< 100 nM
4,"Nc1ncnc2c1c1cc(C(=O)O)ccc1n2CC(=O)N1[C@@H]2C[C@@H]2C[C@H]1C(=O)Nc1cccc(Br)n1 [Compound 44a, 4-amino-9-(2-((1R,3S,5R)-3-((6-bromopyridin-2-yl)carbamoyl)-2-azabicyclo[3.1.0]hexan-2-yl)-2-oxoethyl)-9H-pyrimido[4,5-b]indole-6-carboxylic acid]",< 100 nM
5,"CCOC(=O)CCc1ccc2c(c1)c1c(N)ncnc1n2CC(=O)N1[C@@H]2C[C@@H]2C[C@H]1C(=O)Nc1cccc(Br)n1 [Compound 45d, ethyl 3-(4-amino-9-(2-((1R,3S,5R)-3-((6-bromopyridin-2-yl)carbamoyl)-2-azabicyclo[3.1.0]hexan-2-yl)-2-oxoethyl)-9H-pyrimido[4,5-b]indol-6-yl)propanoate]",< 100 nM
6,"CCOC(=O)c1cccc2c1c1c(N)ncnc1n2CC(=O)N1[C@@H]2C[C@@H]2C[C@H]1C(=O)Nc1cccc(Br)n1 [Compound 46g, ethyl 4-amino-9-(2-((1R,3S,5R)-3-((6-bromopyridin-2-yl)carbamoyl)-2-azabicyclo[3.1.0]hexan-2-yl)-2-oxoethyl)-9H-pyrimido[4,5-b]indole-5-carboxylate]",100 to 1000 nM
7,"COC(=O)c1cccc2c3c(N)ncnc3n(CC(=O)N3[C@@H]4C[C@@H]4C[C@H]3C(=O)Nc3cccc(Br)n3)c12 [Compound 47g, methyl 4-amino-9-(2-((1R,3S,5R)-3-((6-bromopyridin-2-yl)carbamoyl)-2-azabicyclo[3.1.0]hexan-2-yl)-2-oxoethyl)-9H-pyrimido[4,5-b]indole-8-carboxylate]",< 100 nM
8,"CC(C)(C)OC(=O)Nc1ccc2c(c1)c1c(N)ncnc1n2CC(=O)N1[C@@H]2C[C@@H]2C[C@H]1C(=O)Nc1cccc(Br)n1 [Compound 48d, tert-butyl (4-amino-9-(2-((1R,3S,5R)-3-((6-bromopyridin-2-yl)carbamoyl)-2-azabicyclo[3.1.0]hexan-2-yl)-2-oxoethyl)-9H-pyrimido[4,5-b]indol-6-yl)carbamate]",< 100 nM
9,"N#Cc1ccc2c(c1)c1c(N)ncnc1n2CC(=O)N1[C@@H]2C[C@@H]2C[C@H]1C(=O)Nc1cccc(Br)n1 [Compound 49c, (1R,3S,5R)-2-(2-(4-amino-6-cyano-9H-pyrimido[4,5-b]indol-9-yl)acetyl)-N-(6-bromopyridin-2-yl)-2-azabicyclo[3.1.0]hexane-3-carboxamide]",< 100 nM
10,"Nc1ncnc2c1c1c(F)cccc1n2CC(=O)N1[C@@H]2C[C@@H]2C[C@H]1C(=O)Nc1cccc(Br)n1 [Compound 50f, (1R,3S,5R)-2-(2-(4-amino-5-fluoro-9H-pyrimido[4,5-b]indol-9-yl)acetyl)-N-(6-bromopyridin-2-yl)-2-azabicyclo[3.1.0]hexane-3-carboxamide]",100 to 1000 nM
11,"Nc1ncnc2c1c1cccc(F)c1n2CC(=O)N1[C@@H]2C[C@@H]2C[C@H]1C(=O)Nc1cccc(Br)n1 [Compound 51g, (1R,3S,5R)-2-(2-(4-amino-8-fluoro-9H-pyrimido[4,5-b]indol-9-yl)acetyl)-N-(6-bromopyridin-2-yl)-2-azabicyclo[3.1.0]hexane-3-carboxamide]",< 100 nM
12,"Nc1ncnc2c1c1ccc(Br)cc1n2CC(=O)N1[C@@H]2C[C@@H]2C[C@H]1C(=O)Nc1cccc(Br)n1 [Compound 52f, (1R,3S,5R)-2-(2-(4-amino-7-bromo-9H-pyrimido[4,5-b]indol-9-yl)acetyl)-N-(6-bromopyridin-2-yl)-2-azabicyclo[3.1.0]hexane-3-carboxamide]",< 100 nM
13,"Nc1ncnc2c1c1cc(C(F)(F)F)ccc1n2CC(=O)N1CC2(CC2)C[C@H]1C(=O)Nc1cccc(Br)n1 [Compound 53d, (S)-5-(2-(4-amino-6-(trifluoromethyl)-9H-pyrimido[4,5-b]indol-9-yl)acetyl)-N-(6-bromopyridin-2-yl)-5-azaspiro[2.4]heptane-6-carboxamide]",100 to 1000 nM
14,"COc1cccc2c3c(N)ncnc3n(CC(=O)N3[C@@H]4C[C@@H]4C[C@H]3C(=O)Nc3cccc(Br)n3)c12 [Compound 54g, (1R,3S,5R)-2-(2-(4-amino-8-methoxy-9H-pyrimido[4,5-b]indol-9-yl)acetyl)-N-(6-bromopyridin-2-yl)-2-azabicyclo[3.1.0]hexane-3-carboxamide]",< 100 nM
15,"Cc1cccc2c3c(N)ncnc3n(CC(=O)N3[C@H](C(=O)Nc4cccc(Br)n4)C[C@@]4(C)C[C@@H]34)c12 [Compound 55a, (1R,3S,5R)-2-(2-(4-amino-8-methyl-9H-pyrimido[4,5-b]indol-9-yl)acetyl)-N-(6-bromopyridin-2-yl)-5-methyl-2-azabicyclo[3.1.0]hexane-3-carboxamide]",< 100 nM
16,"Cc1cccc2c1c1c(N)ncnc1n2CC(=O)N1[C@@H]2C[C@@H]2C[C@H]1C(=O)Nc1cccc(Br)n1 [Compound 56g, (1R,3S,5R)-2-(2-(4-amino-5-methyl-9H-pyrimido[4,5-b]indol-9-yl)acetyl)-N-(6-bromopyridin-2-yl)-2-azabicyclo[3.1.0]hexane-3-carboxamide]",100 to 1000 nM
17,"COc1cccc2c1c1c(N)ncnc1n2CC(=O)N1[C@@H]2C[C@@H]2C[C@H]1C(=O)Nc1cccc(Br)n1 [Compound 57g, (1R,3S,5R)-2-(2-(4-amino-5-methoxy-9H-pyrimido[4,5-b]indol-9-yl)acetyl)-N-(6-bromopyridin-2-yl)-2-azabicyclo[3.1.0]hexane-3-carboxamide]",< 100 nM
18,"CC(=O)c1ccc2c(c1)c1c(N)ncnc1n2CC(=O)N1[C@@H]2C[C@@H]2C[C@H]1C(=O)Nc1cccc(Br)n1 [Compound 58c, (1R,3S,5R)-2-(2-(6-acetyl-4-amino-9H-pyrimido[4,5-b]indol-9-yl)acetyl)-N-(6-bromopyridin-2-yl)-2-azabicyclo[3.1.0]hexane-3-carboxamide]",< 100 nM
19,"C=Cc1ccc2c(c1)c1c(N)ncnc1n2CC(=O)N1[C@@H]2C[C@@H]2C[C@H]1C(=O)Nc1cccc(Br)n1 [Compound 59c, (1R,3S,5R)-2-(2-(4-amino-6-vinyl-9H-pyrimido[4,5-b]indol-9-yl)acetyl)-N-(6-bromopyridin-2-yl)-2-azabicyclo[3.1.0]hexane-3-carboxamide]",< 100 nM
20,"NC(=O)c1ccc2c(c1)c1c(N)ncnc1n2CC(=O)N1[C@@H]2C[C@@H]2C[C@H]1C(=O)Nc1cccc(Br)n1 [Compound 60c, 4-amino-9-(2-((1R,3S,5R)-3-((6-bromopyridin-2-yl)carbamoyl)-2-azabicyclo[3.1.0]hexan-2-yl)-2-oxoethyl)-9H-pyrimido[4,5-b]indole-6-carboxamide]",< 100 nM
21,"Nc1ccc2c(c1)c1c(N)ncnc1n2CC(=O)N1[C@@H]2C[C@@H]2C[C@H]1C(=O)Nc1cccc(Br)n1 [Compound 61a, (1R,3S,5R)—N-(6-bromopyridin-2-yl)-2-(2-(4,6-diamino-9H-pyrimido[4,5-b]indol-9-yl)acetyl)-2-azabicyclo[3.1.0]hexane-3-carboxamide]",< 100 nM
22,"Nc1ncnc2c1c1cc(-c3ccccc3)ccc1n2CC(=O)N1[C@@H]2C[C@@H]2C[C@H]1C(=O)Nc1cccc(Br)n1 [Compound 62c, (1R,3S,5R)-2-(2-(4-amino-6-phenyl-9H-pyrimido[4,5-b]indol-9-yl)acetyl)-N-(6-bromopyridin-2-yl)-2-azabicyclo[3.1.0]hexane-3-carboxamide]",< 100 nM
